# Measured values taken from US6737383B1, “Herbicidal oxadiazolidines” (priority 1999, dated 2004).
# Legend:
# surinam grass = assay: Test B pre/postemergence surinam grass; format: in vivo, Brachiaria decumbens
# In short: (§1)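 Herbicidal effect was estimated by eye on a ten-point control scale after plants spent twelve to sixteen days in a greenhouse following soil or foliar treatment. Foliar sprays targeted plants at one to four leaves; all doses were formulated in a non-phytotoxic solvent with surfactant.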
# rape = assay: Test B pre/postemergence rape; format: in vivo, Brassica napus
# In short: as §1
# cocklebur = assay: Test B pre/postemergence cocklebur; format: in vivo, Xanthium strumarium
# In short: as §1
# rice = assay: Test B flood test rice; format: in vivo, Oryza sativa
# In short: (§2)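 Read-out is a visual response score from 0 (no effect) to 10 (complete control), assigned by comparison with untreated controls. Treatment was applied at the 2-leaf stage, and plants stayed in the greenhouse for twelve to sixteen days before scoring.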
# corn = assay: Test B pre/postemergence corn; format: in vivo, Zea mays
# In short: as §1
# wild oat = assay: Test B pre/postemergence wild oat; format: in vivo, Avena fatua
# In short: as §1
# sugar beet = assay: Test B pre/postemergence sugar beet; format: in vivo, Beta vulgaris
# In short: as §1
# smallflower flatsedge = assay: Test B flood test smallflower flatsedge; format: in vivo, Cyperus difformis
# In short: as §2
# soybean = assay: Test B pre/postemergence soybean; format: in vivo, Glycine max
# In short: as §1
# bamyardgrass = assay: Test B flood test barnyardgrass; format: in vivo, Echinochloa crus-galli
# In short: as §2
# blackgrass = assay: Test B pre/postemergence blackgrass; format: in vivo, Alopecurus myosuroides
# In short: as §1
# pigweed = assay: Test B pre/postemergence pigweed; format: in vivo, Amaranthus retroflexus
# In short: as §1
# purple nutsedge = assay: Test B pre/postemergence purple nutsedge; format: in vivo, Cyperus rotundus
# In short: as §1
# morningglory = assay: Test B pre/postemergence morningglory; format: in vivo, Ipomoea hederacea
# In short: as §1
# velvetleaf = assay: Test B pre/postemergence velvetleaf; format: in vivo, Abutilon theophrasti
# In short: as §1
# bedstraw = assay: Test B pre/postemergence bedstraw; format: in vivo, Galium aparine
# In short: as §1
# [1] = Preemergence, Rate 62 g/ha, scale of 0 to 10 where 0 is no effect and 10 is complete control
# [2] = Preemergence, Rate 125 g/ha, 0 is no effect, 10 is complete control
# [3] = Preemergence, Rate 250 g/ha, scale 0 to 10, 0 is no effect, 10 is complete control
# [4] = Preemergence, Rate 500 g/ha, scale 0 to 10 (0 no effect, 10 complete control)
# [5] = Rate 62 g/ha, Postemergence, scale of 0 to 10 where 0 is no effect and 10 is complete control
# [6] = Rate 125 g/ha, Postemergence, scale 0 to 10
# [7] = Rate 500 g/ha, Postemergence, scale 0 to 10
# [8] = Rate 62 g/ha, headed Pre-emergence (flood test species), scale 0 to 10 (0 no effect, 10 complete control)
# [9] = Rate 125 g/ha, Pre-emergence, flood test species, scale 0 to 10 where 0 is no effect and 10 is complete control
# [10] = Rate 250 g/ha, Pre-emergence, flood-test species, scale 0 to 10, 0 is no effect, 10 is complete control
# [11] = Rate 500 g/ha, headed Pre-emergence (flood test species), scale 0 to 10 (0 no effect, 10 complete control)
structure (smiles),measurement,setting,value
Cc1nc(C)c(Cn2c(=O)on(C(=O)N(c3ccc(Cl)cc3)C(C)C)c2=O)s1 [Compound 191],B. signalgrass plant response rating,surinam grass; [1],0
same,B. signalgrass plant response rating (0 to 10 scale),surinam grass; [2],0
same,B. signalgrass plant response rating,surinam grass; [3],0
same,B. signalgrass plant response rating,surinam grass; [4],3
same,B. signalgrass plant response rating,surinam grass; [5],0
same,B. signalgrass plant response rating,"surinam grass; Rate 125 g/ha, Postemergence, scale 0 (no effect) to 10 (complete control)",0
same,"Plant response rating, B. signalgrass","surinam grass; Rate 250 g/ha, Postemergence, scale 0 to 10, 0 is no effect, 10 is complete control",0
same,B. signalgrass plant response rating,"surinam grass; Rate 500 g/ha, Postemergence, scale 0 to 10, 0 no effect, 10 complete control",1
same,Rape plant response rating,rape; [1],0
same,Rape plant response rating (0 to 10 scale),rape; [2],0
same,Rape plant response rating,rape; [3],0
same,Rape plant response rating,rape; [4],0
same,Rape plant response rating,rape; [5],0
same,Rape plant response rating,rape; [6],0
same,"Plant response rating (0 to 10; 0 is no effect, 10 is complete control), Rape","rape; Rate 250 g/ha, Postemergence",0
same,Rape plant response rating,rape; [7],0
same,Cocklebur plant response rating,cocklebur; [1],0
same,Cocklebur plant response rating (0 to 10 scale),cocklebur; [2],0
same,Cocklebur plant response rating,cocklebur; [3],0
same,Cocklebur plant response rating,cocklebur; [4],0
same,Cocklebur plant response rating,cocklebur; [5],1
same,Cocklebur plant response rating,cocklebur; [6],2
same,"Plant response rating (0 to 10; 0 is no effect, 10 is complete control), Cocklebur","cocklebur; Rate 250 g/ha, Postemergence",2
same,Cocklebur plant response rating,cocklebur; [7],3
same,Rice plant response rating,rice; [8],0
same,Rice plant response rating,rice; [9],0
same,Rice plant response rating,rice; [10],0
same,"Plant response rating, Rice",rice; [11],0
same,Corn plant response rating,corn; [1],0
same,Corn plant response rating (0 to 10 scale),corn; [2],0
same,Corn plant response rating,corn; [3],0
same,Corn plant response rating,corn; [4],0
same,Corn plant response rating,corn; [5],0
same,Corn plant response rating,corn; [6],0
same,"Plant response rating (0 to 10; 0 is no effect, 10 is complete control), Corn","corn; Rate 250 g/ha, Postemergence",0
same,Corn plant response rating,corn; [7],0
same,Wild oats plant response rating,wild oat; [3],3
same,Wild oats plant response rating,wild oat; [4],7
same,Wild oats plant response rating,wild oat; [5],0
same,Wild oats plant response rating,wild oat; [6],0
same,"Plant response rating (0 to 10; 0 is no effect, 10 is complete control), Wild oats","wild oat; Rate 250 g/ha, Postemergence",0
same,Sugarbeets plant response rating,sugar beet; [1],0
same,Sugarbeets plant response rating (0 to 10 scale),sugar beet; [2],0
same,Sugarbeets plant response rating,sugar beet; [3],0
same,Sugarbeets plant response rating,sugar beet; [4],0
same,Sugarbeets plant response rating,sugar beet; [5],0
same,Sugarbeets plant response rating,sugar beet; [6],0
same,"Plant response rating (0 to 10; 0 is no effect, 10 is complete control), Sugarbeets","sugar beet; Rate 250 g/ha, Postemergence",0
same,Sugarbeets plant response rating,sugar beet; [7],0
same,S. Flatsedge plant response rating,smallflower flatsedge; [8],0
same,S. Flatsedge plant response rating,smallflower flatsedge; [9],0
same,S. Flatsedge plant response rating,smallflower flatsedge; [10],0
same,S. Flatsedge plant response rating,"smallflower flatsedge; Rate 500 g/ha, Pre-emergence, flood test species, scale 0 to 10 (0 no effect, 10 complete control)",0
same,Soybean plant response rating,soybean; [1],0
same,Soybean plant response rating (0 to 10 scale),soybean; [2],0
same,Soybean plant response rating,soybean; [3],0
same,Soybean plant response rating,soybean; [4],0
same,Soybean plant response rating,soybean; [5],3
same,Soybean plant response rating,soybean; [6],3
same,"Plant response rating (0 to 10; 0 is no effect, 10 is complete control), Soybean","soybean; Rate 250 g/ha, Postemergence",3
same,Soybean plant response rating,soybean; [7],4
same,Barnyardgrass plant response rating,bamyardgrass; [8],0
same,Barnyardgrass plant response rating,bamyardgrass; [9],0
same,Barnyardgrass plant response rating,bamyardgrass; [10],0
same,"Plant response rating, Barnyardgrass",bamyardgrass; [11],0
same,Blackgrass plant response rating,blackgrass; [1],0
same,Blackgrass plant response rating (0 to 10 scale),blackgrass; [2],0
same,Blackgrass plant response rating,blackgrass; [3],4
same,Blackgrass plant response rating,blackgrass; [4],6
same,Blackgrass plant response rating,blackgrass; [5],0
same,Blackgrass plant response rating,blackgrass; [6],0
same,"Plant response rating (0 to 10; 0 is no effect, 10 is complete control), Blackgrass","blackgrass; Rate 250 g/ha, Postemergence",0
same,Blackgrass plant response rating,blackgrass; [7],3
same,Redroot pigweed plant response rating,pigweed; [1],0
same,Redroot pigweed plant response rating (0 to 10 scale),pigweed; [2],0
same,Redroot pigweed plant response rating,pigweed; [3],1
same,Redroot pigweed plant response rating,pigweed; [4],6
same,Redroot pigweed plant response rating,pigweed; [5],0
same,Redroot pigweed plant response rating,pigweed; [6],0
same,"Plant response rating (0 to 10; 0 is no effect, 10 is complete control), Redroot pigweed","pigweed; Rate 250 g/ha, Postemergence",0
same,Redroot pigweed plant response rating,pigweed; [7],0
same,Nutsedge plant response rating,purple nutsedge; [1],0
same,Nutsedge plant response rating (0 to 10 scale),purple nutsedge; [2],0
same,Nutsedge plant response rating,purple nutsedge; [3],0
same,Nutsedge plant response rating,purple nutsedge; [4],0
same,Nutsedge plant response rating,purple nutsedge; [5],0
same,Nutsedge plant response rating,purple nutsedge; [6],0
same,"Plant response rating (0 to 10; 0 is no effect, 10 is complete control), Nutsedge","purple nutsedge; Rate 250 g/ha, Postemergence",0
same,Nutsedge plant response rating,purple nutsedge; [7],0
same,Morningglory plant response rating,morningglory; [1],0
same,Morningglory plant response rating,morningglory; [3],0
same,Morningglory plant response rating,morningglory; [4],0
same,Morningglory plant response rating,morningglory; [5],1
same,Morningglory plant response rating,morningglory; [6],2
same,"Plant response rating (0 to 10; 0 is no effect, 10 is complete control), Morningglory","morningglory; Rate 250 g/ha, Postemergence",2
same,Morningglory plant response rating,morningglory; [7],8
same,Velvetleaf plant response rating,velvetleaf; [1],0
same,Velvetleaf plant response rating,velvetleaf; [3],0
same,Velvetleaf plant response rating,velvetleaf; [4],0
same,Velvetleaf plant response rating,velvetleaf; [5],0
same,Velvetleaf plant response rating,velvetleaf; [6],0
same,"Plant response rating (0 to 10; 0 is no effect, 10 is complete control), Velvetleaf","velvetleaf; Rate 250 g/ha, Postemergence",2
same,Bedstraw plant response rating,bedstraw; [1],0
same,Bedstraw plant response rating (0 to 10 scale),bedstraw; [2],0
same,Bedstraw plant response rating,bedstraw; [3],0
same,Bedstraw plant response rating,bedstraw; [4],0
same,Bedstraw plant response rating,bedstraw; [5],0
same,Bedstraw plant response rating,bedstraw; [6],0
same,"Plant response rating (0 to 10; 0 is no effect, 10 is complete control), Bedstraw","bedstraw; Rate 250 g/ha, Postemergence",0
same,Bedstraw plant response rating,bedstraw; [7],0
